Test results as given in patent US20230103791A1 (GLAXOSMITHKLINE INTELLECTUAL PROPERTY DEVELOPMENT LIMITED, priority 2019, published 2023).

biological target: T1, human Nav1.8 (Homo sapiens, UniProt Q9Y5Y9); assay: Nav1.8 sodium channels assay, QPatch 48 HTX electrophysiology in HEK293-Nav1.8 cells; assay type: cell-based; conditions: at least one set of experimental runs; read-out: average pIC50 value against Nav1.8 (converted)
T1 construct: expressed in transfected cells; host or cells: HEK293 (HEK293-Nav1.8)
T1 sequence (Q9Y5Y9 whole entry): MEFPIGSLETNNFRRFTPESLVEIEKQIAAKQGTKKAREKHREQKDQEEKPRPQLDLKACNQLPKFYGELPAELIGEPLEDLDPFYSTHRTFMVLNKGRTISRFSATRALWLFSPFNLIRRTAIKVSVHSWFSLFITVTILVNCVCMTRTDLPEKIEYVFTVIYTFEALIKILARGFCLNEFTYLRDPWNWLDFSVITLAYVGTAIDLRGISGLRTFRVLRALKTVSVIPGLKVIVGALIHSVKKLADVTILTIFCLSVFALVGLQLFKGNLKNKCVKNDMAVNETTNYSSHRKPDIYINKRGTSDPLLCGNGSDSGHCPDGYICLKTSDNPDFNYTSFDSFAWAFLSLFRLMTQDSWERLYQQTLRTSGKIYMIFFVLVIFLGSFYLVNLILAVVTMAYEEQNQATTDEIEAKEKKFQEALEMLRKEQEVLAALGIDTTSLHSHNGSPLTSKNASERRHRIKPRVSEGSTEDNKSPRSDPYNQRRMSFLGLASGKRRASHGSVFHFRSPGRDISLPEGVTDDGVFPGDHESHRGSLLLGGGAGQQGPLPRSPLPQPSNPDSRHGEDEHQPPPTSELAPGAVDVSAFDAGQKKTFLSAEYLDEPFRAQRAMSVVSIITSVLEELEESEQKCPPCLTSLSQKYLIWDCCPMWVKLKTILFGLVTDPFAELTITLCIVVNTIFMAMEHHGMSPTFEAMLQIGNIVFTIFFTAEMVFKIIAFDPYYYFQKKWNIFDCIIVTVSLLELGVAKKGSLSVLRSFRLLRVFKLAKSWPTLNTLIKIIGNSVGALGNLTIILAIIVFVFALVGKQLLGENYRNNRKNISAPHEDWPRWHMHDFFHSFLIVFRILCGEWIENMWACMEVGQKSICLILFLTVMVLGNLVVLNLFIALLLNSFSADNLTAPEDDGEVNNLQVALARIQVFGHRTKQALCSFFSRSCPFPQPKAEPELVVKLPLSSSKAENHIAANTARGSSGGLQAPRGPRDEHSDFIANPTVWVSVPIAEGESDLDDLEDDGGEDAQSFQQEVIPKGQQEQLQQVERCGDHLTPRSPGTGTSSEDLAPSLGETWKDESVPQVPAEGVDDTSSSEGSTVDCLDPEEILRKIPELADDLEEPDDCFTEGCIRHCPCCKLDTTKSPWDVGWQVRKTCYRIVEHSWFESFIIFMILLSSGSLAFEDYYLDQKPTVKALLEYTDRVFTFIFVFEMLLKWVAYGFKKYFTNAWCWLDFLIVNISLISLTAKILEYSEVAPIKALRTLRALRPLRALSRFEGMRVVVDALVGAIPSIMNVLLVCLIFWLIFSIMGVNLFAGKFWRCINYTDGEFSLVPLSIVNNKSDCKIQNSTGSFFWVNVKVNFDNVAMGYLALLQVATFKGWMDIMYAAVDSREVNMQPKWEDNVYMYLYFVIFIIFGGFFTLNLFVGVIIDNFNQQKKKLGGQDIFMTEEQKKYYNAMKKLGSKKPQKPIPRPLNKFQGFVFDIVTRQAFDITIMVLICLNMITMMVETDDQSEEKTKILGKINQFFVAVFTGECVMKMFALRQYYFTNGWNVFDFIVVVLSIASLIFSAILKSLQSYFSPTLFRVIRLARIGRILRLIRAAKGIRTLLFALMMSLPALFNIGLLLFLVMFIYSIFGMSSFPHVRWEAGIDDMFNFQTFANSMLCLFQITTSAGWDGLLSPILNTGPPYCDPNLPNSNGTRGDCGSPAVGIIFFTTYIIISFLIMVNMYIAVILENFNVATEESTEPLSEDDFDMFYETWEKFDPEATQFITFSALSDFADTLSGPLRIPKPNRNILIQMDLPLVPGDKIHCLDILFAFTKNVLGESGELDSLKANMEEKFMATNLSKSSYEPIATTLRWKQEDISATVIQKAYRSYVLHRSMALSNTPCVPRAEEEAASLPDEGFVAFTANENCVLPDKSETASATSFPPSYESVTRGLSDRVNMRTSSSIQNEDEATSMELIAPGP
T1 sequence (Q07699 19-218 partner): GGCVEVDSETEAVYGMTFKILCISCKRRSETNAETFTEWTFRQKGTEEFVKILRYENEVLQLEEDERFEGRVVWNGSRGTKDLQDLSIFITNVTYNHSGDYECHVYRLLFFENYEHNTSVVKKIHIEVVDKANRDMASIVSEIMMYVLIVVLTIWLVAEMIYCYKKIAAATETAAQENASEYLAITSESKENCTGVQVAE
Summary of the method: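 IC50 came from 6-8 point curves of P2 current amplitude, normalized to baseline and a positive reference, and corrected for run-down using vehicle-only wells. Automated patch clamp used HEK293-Nav1.8 (with Navβ1 and TREK1) at pH 7.4 outside and CsF-based solution inside. An 8 s inactivating step at −46 mV preceded the 0 mV test pulse, repeated at 0.07 Hz.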

IC50 [µM]	Structure (SMILES)
0.126 to 0.631	COc1cc(C)ccc1N1CN(c2ccc(=O)[nH]c2C)C(=O)c2cc(Cl)ccc21 [Example 134, 6-chloro-1-(2-methoxy-4-methylphenyl)-3-(2-methyl-6-oxo-1,6-dihydropyridin-3-yl)-2,3-dihydroquinazolin-4(1H)-one]
0.794 to 7.94	Cc1cccc(F)c1N1CN(c2ccc(=O)[nH]c2C)C(=O)c2cc(C(F)(F)F)ccc21 [Example 135, 1-(2-fluoro-6-methylphenyl)-3-(2-methyl-6-oxo-1,6-dihydropyridin-3-yl)-6-(trifluoromethyl)-2,3-dihydroquinazolin-4(1H)-one]
0.794 to 7.94	Cc1cc(F)ccc1N1CN(c2cc[nH]c(=O)c2)C(=O)c2c1ccc(Cl)c2F [Example 136, 6-chloro-5-fluoro-1-(4-fluoro-2-methylphenyl)-3-(2-oxo-1,2-dihydropyridin-4-yl)-2,3-dihydroquinazolin-4(1H)-one]
≤ 0.1	Cc1[nH]c(=O)ccc1N1CN(c2ccc(F)cc2C(C)C)c2cc(C(F)F)ccc2C1=O [Example 137, 7-(difluoromethyl)-1-(4-fluoro-2-isopropylphenyl)-3-(2-methyl-6-oxo-1,6-dihydropyridin-3-yl)-2,3-dihydroquinazolin-4(1H)-one]
≤ 0.1	Cc1cc(F)ccc1N1CN(c2ccc(=O)[nH]c2C)C(=O)c2ccc(C(F)F)cc21 [Example 138, 7-(difluoromethyl)-1-(4-fluoro-2-methylphenyl)-3-(2-methyl-6-oxo-1,6-dihydropyridin-3-yl)-2,3-dihydroquinazolin-4(1H)-one]
≤ 0.1	CCc1[nH]c(=O)ccc1N1CN(c2ccc(F)cc2C(C)C)c2ccc(Cl)cc2C1=O [Example 139, 6-chloro-3-(2-ethyl-6-oxo-1,6-dihydropyridin-3-yl)-1-(4-fluoro-2-isopropylphenyl)-2,3-dihydroquinazolin-4(1H)-one]
0.126 to 0.631	Cc1[nH]c(=O)ccc1N1CN(c2ccc(F)c(C#N)c2C)c2ccc(C(F)(F)F)cc2C1=O [Example 140, 6-fluoro-2-methyl-3-(3-(2-methyl-6-oxo-1,6-dihydropyridin-3-yl)-4-oxo-6-(trifluoromethyl)-3,4-dihydroquinazolin-1(2H)-yl)benzonitrile]
0.126 to 0.631	Cc1[nH]c(=O)ccc1N1CN(c2ccc(F)cc2C(C)C)c2ncc(F)cc2C1=O [Example 141, 6-fluoro-1-(4-fluoro-2-isopropylphenyl)-3-(2-methyl-6-oxo-1,6-dihydropyridin-3-yl)-2,3-dihydropyrido[2,3-d]pyrimidin-4(1H)-one]
≤ 0.1	Cc1[nH]c(=O)ccc1N1CN(c2ccc(F)cc2Br)c2ccc(C(F)(F)F)cc2C1=O [Example 142, 1-(2-bromo-4-fluorophenyl)-3-(2-methyl-6-oxo-1,6-dihydropyridin-3-yl)-6-(trifluoromethyl)-2,3-dihydroquinazolin-4(1H)-one]
≤ 0.1	Cc1cc(F)ccc1N1CN(c2ccc(=O)[nH]c2C)C(=O)c2cc(F)ccc21 [Example 143, 6-fluoro-1-(4-fluoro-2-methylphenyl)-3-(2-methyl-6-oxo-1,6-dihydropyridin-3-yl)-2,3-dihydroquinazolin-4(1H)-one]
0.126 to 0.631	O=C1c2ccc(C(F)(F)F)cc2N(c2ccc(F)cc2)CN1c1ccc(=O)[nH]c1 [Example 144, 1-(4-Fluorophenyl)-3-(6-oxo-1,6-dihydropyridin-3-yl)-7-(trifluoromethyl)-2,3-dihydroquinazolin-4(1H)-one]
0.126 to 0.631	Cc1cc(F)ccc1N1CN(c2cnc(=O)[nH]c2)C(=O)c2ccc(C(F)(F)F)cc21 [Example 145, 1-(4-fluoro-2-methylphenyl)-3-(2-oxo-1,2-dihydropyrimidin-5-yl)-7-(trifluoromethyl)-2,3-dihydroquinazolin-4(1H)-one]
0.126 to 0.631	Cc1cc(Br)ccc1N1CN(c2ccc(=O)[nH]c2)C(=O)c2ccc(C(F)(F)F)cc21 [Example 146, 1-(4-bromo-2-methylphenyl)-3-(6-oxo-1,6-dihydropyridin-3-yl)-7-(trifluoromethyl)-2,3-dihydroquinazolin-4(1H)-one]
0.126 to 0.631	Cc1[nH]c(=O)ccc1N1CN(c2ccc(F)cc2)c2cc(C(F)(F)F)ccc2C1=O [Example 147, 1-(4-fluorophenyl)-3-(2-methyl-6-oxo-1,6-dihydropyridin-3-yl)-7-(trifluoromethyl)-2,3-dihydroquinazolin-4(1H)-one]
≤ 0.1	Cc1cc(C#N)ccc1N1CN(c2ccc(=O)[nH]c2C)C(=O)c2ccc(C(F)(F)F)cc21 [Example 148, 3-methyl-4-(3-(2-methyl-6-oxo-1,6-dihydropyridin-3-yl)-4-oxo-7-(trifluoromethyl)-3,4-dihydroquinazolin-1(2H)-yl)benzonitrile]
0.126 to 0.631	Cc1cc(F)ccc1N1CN(c2ccc(=O)[nH]c2C)C(=O)c2ccc(C(F)(F)F)nc21 [Example 149, 1-(4-fluoro-2-methylphenyl)-3-(2-methyl-6-oxo-1,6-dihydropyridin-3-yl)-7-(trifluoromethyl)-2,3-dihydropyrido[2,3-d]pyrimidin-4(1H)-one]

IC50 [µM]	Structure (SMILES)
≤ 0.1	CCc1[nH]c(=O)ccc1N1CN(c2ccc(F)cc2C)c2cc(C(F)(F)F)ccc2C1=O [Example 150, 3-(2-ethyl-6-oxo-1,6-dihydropyridin-3-yl)-1-(4-fluoro-2-methylphenyl)-7-(trifluoromethyl)-2,3-dihydroquinazolin-4(1H)-one]
0.794 to 7.94	Cc1cc(F)ccc1N1CN(c2ccc(=O)[nH]c2Cl)C(=O)c2ccc(C(F)(F)F)cc21 [Example 151, 3-(2-chloro-6-oxo-1,6-dihydropyridin-3-yl)-1-(4-fluoro-2-methylphenyl)-7-(trifluoromethyl)-2,3-dihydroquinazolin-4(1H)-one]
≤ 0.1	Cc1cc(F)ccc1N1CN(c2ccc(=O)[nH]c2C)C(=O)c2ccc(Br)cc21 [Example 152, 7-bromo-1-(4-fluoro-2-methylphenyl)-3-(2-methyl-6-oxo-1,6-dihydropyridin-3-yl)-2,3-dihydroquinazolin-4(1H)-one]
≤ 0.1	Cc1cc(F)ccc1N1CN(c2ccc(=O)[nH]c2C)C(=O)c2ccc(C#N)cc21 [Example 153, 1-(4-fluoro-2-methylphenyl)-3-(2-methyl-6-oxo-1,6-dihydropyridin-3-yl)-4-oxo-1,2,3,4-tetra-hydroquinazoline-7-carbonitrile]
0.126 to 0.631	Cc1cc(F)ccc1N1CN(c2ccc(=O)[nH]c2C#N)C(=O)c2ccc(C(F)(F)F)cc21 [Example 154, 3-(1-(4-fluoro-2-methylphenyl)-4-oxo-7-(trifluoromethyl)-1,4-dihydroquinazolin-3(2H)-yl)-6-oxo-1,6-dihydropyridine-2-carbonitrile]
0.126 to 0.631	Cc1[nH]c(=O)ccc1N1CN(c2ccc(F)cc2F)c2cc(C(F)(F)F)ccc2C1=O [Example 155, 1-(2,4-difluorophenyl)-3-(2-methyl-6-oxo-1,6-dihydropyridin-3-yl)-7-(trifluoromethyl)-2,3-dihydroquinazolin-4(1H)-one]
0.126 to 0.631	CCOc1ccc(N2CN(c3ccc(=O)[nH]c3C)C(=O)c3ccc(C(F)(F)F)cc32)cc1 [Example 156, 1-(4-ethoxyphenyl)-3-(2-methyl-6-oxo-1,6-dihydropyridin-3-yl)-7-(trifluoromethyl)-2,3-dihydroquinazolin-4(1H)-one]
0.126 to 0.631	Cc1cc(F)ccc1N1CN(c2cc[nH]c(=O)c2)C(=O)c2ccc(C(F)(F)F)cc21 [Example 157, 1-(4-fluoro-2-methylphenyl)-3-(2-oxo-1,2-dihydropyridin-4-yl)-7-(trifluoromethyl)-2,3-dihydroquinazolin-4(1H)-one]
≤ 0.1	Cc1cc(F)ccc1N1CN(c2ccc(=O)[nH]c2C)C(=O)c2cc(F)c(F)cc21 [Example 158, 6,7-difluoro-1-(4-fluoro-2-methylphenyl)-3-(2-methyl-6-oxo-1,6-dihydropyridin-3-yl)-2,3-dihydroquinazolin-4(1H)-one]
≤ 0.1	Cc1[nH]c(=O)ccc1N1CN(c2ccc(F)cc2C(C)C)c2cc(F)c(F)cc2C1=O [Example 159, 6,7-difluoro-1-(4-fluoro-2-isopropylphenyl)-3-(2-methyl-6-oxo-1,6-dihydropyridin-3-yl)-2,3-dihydroquinazolin-4(1H)-one]
≤ 0.1	Cc1[nH]c(=O)ccc1N1CN([C@H]2CCCC[C@H]2C)c2cc(C(F)(F)F)ccc2C1=O [Example 160, 3-(2-methyl-6-oxo-1,6-dihydropyridin-3-yl)-1-((1S,2R)-2-methylcyclohexyl)-7-(trifluoromethyl)-2,3-dihydroquinazolin-4(1H)-one]
≤ 0.1	Cc1[nH]c(=O)ccc1N1CN(c2ccc(F)cc2C(C)C)c2cc(C#N)ccc2C1=O [Example 161, 1-(4-fluoro-2-isopropylphenyl)-3-(2-methyl-6-oxo-1,6-dihydropyridin-3-yl)-4-oxo-1,2,3,4-tetra-hydroquinazoline-7-carbonitrile]
≤ 0.1	Cc1[nH]c(=O)ccc1N1CN([C@@H]2CCCC[C@@H]2C)c2cc(C(F)(F)F)ccc2C1=O [Example 162, 3-(2-methyl-6-oxo-1,6-dihydropyridin-3-yl)-1-((1R,2S)-2-methylcyclohexyl)-7-(trifluoromethyl)-2,3-dihydroquinazolin-4(1H)-one]
0.794 to 7.94	CC(=O)Nc1[nH]c(=O)ccc1N1CN(c2ccc(F)cc2C)c2ccc(C(F)(F)F)cc2C1=O [Example 163, N-(3-(1-(4-fluoro-2-methylphenyl)-4-oxo-6-(trifluoromethyl)-1,4-dihydroquinazolin-3(2H)-yl)-6-oxo-1,6-dihydropyridin-2-yl)acetamide]
0.126 to 0.631	Cc1cc(F)ccc1N1CN(c2ccc(=O)[nH]c2Br)C(=O)c2cc(C(F)(F)F)ccc21 [Example 164, 3-(2-bromo-6-oxo-1,6-dihydropyridin-3-yl)-1-(4-fluoro-2-methylphenyl)-6-(trifluoromethyl)-2,3-dihydroquinazolin-4(1H)-one]
